Source: patent US12286455B2, “Anthelmintic depsipeptide compounds” (BOEHRINGER INGELHEIM ANIMAL HEALTH USA INC., priority 2015, dated 2025)
≈ marks a conversion by molar mass, not a printed value. Where two headings read alike, the source gives them in different places.

Experiments:
[1] = tested on: Microfilaria of Dirofilaria immitis; experiment: Method B: survival of microfilaria of Dirofilaria immitis in microtitre plate; conditions: 72 h, read-out: median EC50, survival of microfilaria at 72 hours
[2] = amide bond, 24-membered ring, BOP-Cl/DIEA
Haemonchus contortus = experiment: Method A: development of L1 Haemonchus contortus larvae in microtitre plate; conditions: 96 h; for EC50: read-out: median EC50
Description: Twenty L1 Haemonchus contortus larvae were added to wells of a microtitre plate containing a nutrient medium and the test compound in DMSO. An analysis was conducted at 4 days to determine the extent of development of the larvae. Larvae exposed to DMSO alone served as controls. The potencies of the compounds were evaluated in an MIC90 and/or EC50 format.

[3] = the molecule shown is the open-chain precursor; amide bond; 24-membered ring; BOP-Cl/DIEA; DCM; 58.9 mM

CC(C)C[C@H]1C(=O)O[C@H](Cc2ccc(C(C)(C)C)cc2)C(=O)N(C)[C@@H](CC(C)(C)F)C(=O)O[C@H](C)C(=O)N(C)[C@@H](CC(C)C)C(=O)O[C@H](Cc2ccc(C(C)(C)C)cc2)C(=O)N(C)[C@@H](CC(C)(C)F)C(=O)O[C@H](C)C(=O)N1C [Compound 18-19]
EC50 [1]: < 100 nM
ring closure, yield after HPLC ([2]; from H-MeLeu-dPhLac(4-tBu)-MeLeu(4-F)-dLac-MeLeu-dPhLac(4-tBu)-MeLeu(4-F)-dLac-OH, DCM, 0.9 mM): 13%
MIC90 (Haemonchus contortus; read-out: median MIC90): 1 to 10 µM (≈ 1.1 to 11 µg/mL)

C[C@H]1OC(=O)[C@H](CC(C)(C)C)N(C)C(=O)[C@@H](Cc2ccc(C3CCOCC3)cc2)OC(=O)[C@H](CC(C)(C)F)N(C)C(=O)[C@@H](C)OC(=O)[C@H](CC(C)(C)C)N(C)C(=O)[C@@H](Cc2ccc(C3CCOCC3)cc2)OC(=O)[C@H](CC(C)(C)F)N(C)C1=O [Compound 7-32]
EC50 [1]: < 100 nM
ring closure, yield after HPLC ([2]; from H-MeLeu(4-F)-dPhLac(4-(oxan-4-yl))-MeLeu(4-Me)-dLac-MeLeu(4-F)-dPhLac(4-(oxan-4-yl))-MeLeu(4-Me)-dLac-OH, DCM, 25.0 mM): 61%
EC50 (Haemonchus contortus): < 100 nM

H-MeLeu(4-F)-dPhLac(4-tBu)-MeLeu(4-Me)-dLac-MeLeu(4-F)-dPhLac(4-tBu)-MeLeu(4-Me)-dLac-OH
ring closure, isolated yield [3]: 55%

CC(C)C[C@H]1C(=O)O[C@H](Cc2ccc(C3CCOCC3)cc2)C(=O)N(C)[C@@H](CC(C)C)C(=O)O[C@H](C)C(=O)N(C)[C@@H](CC(C)C)C(=O)O[C@H](Cc2ccc(C3CCOCC3)cc2)C(=O)N(C)[C@@H](CC(C)C)C(=O)O[C@H](C)C(=O)N1C [Compound 7-27]
EC50 [1]: < 100 nM
ring closure, yield after HPLC ([2]; from H-MeLeu-dPhLac(4-oxan-4-yl)-MeLeu-dLac-MeLeu-dPhLac(4-oxan-4-yl)-MeLeu-dLac-OH?, 25.0 °C): 13%
EC50 (Haemonchus contortus): 1000 to 10000 nM

CC(C)C[C@H]1C(=O)O[C@H](C)C(=O)N(C)[C@@H](CC(C)(C)F)C(=O)O[C@H](Cc2ccc(N3CCOCC3)cc2)C(=O)N(C)[C@@H](CC(C)C)C(=O)O[C@H](C)C(=O)N(C)[C@@H](CC(C)(C)F)C(=O)O[C@H](Cc2ccc(N3CCOCC3)cc2)C(=O)N1C [Compound 6-18]
ring closure, yield after HPLC ([2]; from H-MeLeu(4-F)-dPhLac(4-morpholinyl)-MeLeu-dLac-MeLeu(4-F)-dPhLac(4-morpholinyl)-MeLeu-dLac-OH?, DCM, 1.7 mM, 25.0 °C): 23%
EC50 (Haemonchus contortus): 100 to 1000 nM

CC(C)C[C@H]1C(=O)O[C@H](C)C(=O)N(C)[C@@H](CC(C)(C)F)C(=O)O[C@H](Cc2ccc(C(F)(F)F)cc2)C(=O)N(C)[C@@H](CC(C)C)C(=O)O[C@H](C)C(=O)N(C)[C@@H](CC(C)(C)F)C(=O)O[C@H](Cc2ccc(C(F)(F)F)cc2)C(=O)N1C [Compound 4-18]
EC50 [1]: < 100 nM
ring closure, yield after HPLC ([2]; from H-MeLeu(4-F)-dPhLac(4-CF3)-MeLeu-dLac-MeLeu(4-F)-dPhLac(4-CF3)-MeLeu-dLac-OH?, DCM, 5.2 mM, 25.0 °C): 34%
EC50 (Haemonchus contortus): 100 to 1000 nM

C[C@H]1OC(=O)[C@H](CC(C)(C)C)N(C)C(=O)[C@@H](Cc2ccc(OC(F)(F)F)cc2)OC(=O)[C@H](CC(C)(C)F)N(C)C(=O)[C@@H](C)OC(=O)[C@H](CC(C)(C)C)N(C)C(=O)[C@@H](Cc2ccc(OC(F)(F)F)cc2)OC(=O)[C@H](CC(C)(C)F)N(C)C1=O [Compound 5-32]
EC50 [1]: 100 to 1000 nM
ring closure, yield after HPLC ([2]; from H-MeLeu(4-F)-dPhLac(4-OCF3)-MeLeu(4-Me)-dLac-MeLeu(4-F)-dPhLac(4-OCF3)-MeLeu(4-Me)-dLac-OH, DCM, 4.17 mM): 59%
EC50 (Haemonchus contortus): 100 to 1000 nM

CC(C)C[C@H]1C(=O)O[C@H](C)C(=O)N(C)[C@@H](CC(C)(C)F)C(=O)O[C@H](Cc2ccc(C3CCOCC3)cc2)C(=O)N(C)[C@@H](CC(C)C)C(=O)O[C@H](C)C(=O)N(C)[C@@H](CC(C)(C)F)C(=O)O[C@H](Cc2ccc(C3CCOCC3)cc2)C(=O)N1C [Compound 7-18]
EC50 [1]: < 100 nM
ring closure, yield after HPLC ([2]; from H-MeLeu(4-F)-dPhLac(4-(oxan-4-yl))-MeLeu-dLac-MeLeu(4-F)-dPhLac(4-(oxan-4-yl))-MeLeu-dLac-OH, DCM, 10.75 mM, 0.0 °C): 60%
EC50 (Haemonchus contortus): 1000 to 10000 nM
